Data: patent US6482410B1, “Cytotactin derivatives that stimulate attachment and neurite outgrowth, and methods of making same” (The Scripps Research Institute, priority 1994, dated 2002)
Entries after “also recorded” stand apart in the source; their conditions may differ. No end group written: not given here.

How the values were obtained:
[1] = tested on: dorsal root ganglia (DRG) neurons; experiment: Two-dimensional neurite outgrowth assay, DRG, 15 hours; format: cell-based, chicken; conditions: DRG neurons
Protocol: Dorsal root ganglia (DRG) cells or forebrain neurons were prepared for the cell attachment assays as follows. DRG from day 6 chicken embryos or forebrains from day 7 chicken embryos were dissected into HBSS. The tissue was pelleted by centrifugation and resuspended in CMF-HBSS and incubated at 37° C. for 10 minutes. The tissue was pelleted again and resuspended in CMF-HBSS containing 0.08% trypsin and allowed to trypsinize for 20 minutes at 37° C. An equal volume of DMEM/F12, 10% FCS, 20 ng/ml nerve growth factor (NGF) (for DRG cells only), 10 μg/ml gentamycin (10% medium) was added, and the tissue was pelleted and resuspended in 2 ml of the 10% medium. The cells were triturated with a fire-polished Pasteur pipette for 15 strokes, and the cells were washed and resuspended in 10 ml of 10% medium. DRG cells were plated in a 10 cm tissue culture dish and incubated for 1 hour at 37° C. in 5% CO2, to allow for attachment of contaminating fibroblasts.
After replating, the cells were harvested, pelleted and washed three times in DMEM/F12, 1% fetal calf serum (FCS), 20 ng/ml NGF (for DRG cells only), 10 μg/ml gentamycin (1% medium), and the number of cells determined using a hemocytometer. The DRG were resuspended to a density of 6×10^5 cells/ml in attachment buffer. The neurons were resuspended to a density of 2×10^4 cells/ml in 1% medium and added to substrates and placed at 37° C., 5% CO2 for 15 hours.
After the growth period, the dishes were gently rinsed with PBS to remove unbound cells, fixed with 1% glutaraldehyde, and viewed by phase contrast microscopy. Ten to forty cells were analyzed for each substrate. Cells were judged as neurite-bearing if the length of the processes was greater than one cell diameter. All cells with neurites were photographed with a 20× objective and total neurite length per neurite-bearing cell was derived from the photographic prints. Percentage of neuronal sprouting was calculated from at least six experiments. Neurite length was calculated from at least three experiments.
This extensive neurite outgrowth after 40 hours made quantitation of the percentage of neurite-bearing cells and neurite length difficult. To analyze quantitatively the effect of CT/TN fusion proteins on DRG neurite outgrowth, DRG cells were therefore plated at low density on CT/TN or CT/TN fragments and analyzed after 15 hours in culture for the percentage of cells that sprouted neurites greater than one cell diameter and for the everage neurite length per neuron. These conditions enhanced the number of isolated cells and discouraged the cell-cell interactions and fasciculation that occurred in the long-term cultures.
The proteins used in the neurite outgrowth assays are the same as those used in the cell attachment assays. […] In addition, poly-L-lysine was adsorbed to the solid support. […] Any cells adhering to the solid support were examined for sprouting and neurite length as defined herein.
Proteins used in the neurite outgrowth assays were prepared as described in Example 5.A.2.
Dorsal root ganglia (DRG) from day 6 chicken embryos were prepared as described in Example 5.A.4. For the neurite outgrowth assays, the DRG were resuspended at a density of 2×10^4 cells/ml in 1% medium, added to solid support, and placed at 37° C. in 5% CO2 for 15 hours. After the attachment and growth period, the dishes were gently rinsed with PBS to remove unbound cells, fixed with 1% (v/v) glutaraldehyde, and viewed by phase contrast microscopy. Ten to thirty cells were analyzed for each adsorbed protein spot. Cells were judged as neurite-bearing if the length of the processes were greater than one cell diameter. All cells with neurites were photographed with a 40× objective and the total neurite length per neurite-bearing cell was derived from the prints. The percent of cells that were sprouting and the average neurite length was derived from six and three independent experiments, respectively. […]

[2] = tested on: chicken fibroblast SL29 cells; experiment: Cell attachment inhibition assay, fibroblasts on CT or CT:GST fusion proteins; format: cell-based; conditions: for inhibition of cell attachment to intact CT: RGD peptides 1 mg/ml, JG22 50 μg/ml, FIG. 2; for effect on cell attachment to CTfg substrate / effect on cell attachment to CTfn3 substrate / effect on cell attachment to CTfn6 substrate: equimolar substrates
Protocol: In the cell attachment inhibition assay, a single cell suspension was incubated with a potential inhibitor and then allowed to settle for a fixed period of time onto a solid support that has been coated with the different proteins to be tested (Friedlander, et al., J. Cell Biol. 107: 2329-2340 (1988)). After removing the unbound and loosely bound cells by washing, the attachment and morphology of those cells remaining on the dish were analyzed.
In the cell attachment inhibition assays, cells were incubated with soluble RGD peptides and/or a monoclonal antibody prior to incubation with solid support.
The inhibitors tested were the RGD-containing soluble peptides, GRGDSP and GRGDTP and the mAb JG22 (Developmental Studies Hybridoma Bank at Department of Pharmacology and Molecular Sciences, Johns Hopkins University School of Medicine, Baltimore, Md.). JG22 is a mouse hybridoma which binds to many types of chicken cells, including fibroblasts and muscle, and is specific to chicken (Greve, et al., J. Cell. Biochem. 18: 221-229 (1982)). JG22 is known to perturb cell attachment to extracellular matrix proteins and disrupts the function of the β1 integrin.
The cell attachment inhibition assay was performed essentially as described for the cell attachment assay in Example 5.B., but with the following modifications.
The solid support and cells were prepared as described in Example 5.B. Again, the initial assay was performed using only intact CT for the preparation of the solid support. The inhibitors tested, GRGDSP, GRGDTP, and the mAb JG22, were admixed with separate aliquots of the chicken fibroblast SL29 and DRG cells prior to addition to the solid support containing intact CT. The RGD-containing peptides were added at a final concentration of 1 mg/ml. The mAb JG22 was added at a final concentration of 50 μg/ml. A combination of each of the RGD-containing peptides and mAb JG22 were also incubated with the fibroblast and DRG cells. The cells and potential inhibitors were incubated for 10 minutes at room temperature and then added to the solid support. Fibroblast and DRG cells without inhibitors were also added to the solid support.
After incubation at 37° C. in 5% CO2 for 1 hour, the solid supports were washed three times in PBS with gentle swirling to remove unattached cells. The cells attached to the solid support were fixed in 1% (v/v) glutaraldehyde in PBS and viewed by phase contrast microscopy. The attached cells were counted using a 10× objective and with an eyepiece reticle. Cells were counted in four fields per adsorbed protein spot. Each protein was tested in three separate spots. The number of cells bound was expressed as the average of the twelve measurements±the standard deviation.
The cell attachment inhibition assay was repeated as described above but using all of the CT:GST fusion proteins in place of intact CT for the preparation of the solid support as described in Example 1.
Cell attachment assays were performed essentially as follows. The chicken fibroblast cell line SL29 was grown to confluence in DMEM with 10% FCS and penicillin/streptomycin. The cells were passaged the night before the assay and seeded at a density of 1:2. Cells were harvested in calcium, magnesium free Hank's balanced salt solution (CMF-HBSS) with 20 mM Hepes buffer and 5 mM EDTA added. The cells were then washed in attachment buffer (CMF-HBSS, 10 mM Hepes, 1 mM CaCl2, 1 mM MgCl2, 0.1 mM MnCl2, 2% BSA) three times, counted in a hemocytometer, resuspended to a density of 6×10^5 cells/ml. Dorsal root ganglion (DRG) neurons were prepared for attachment assays as described in Example 5, but were washed and resuspended at a density of 6×10^5 cells/ml in attachment buffer. Inhibitors of attachment were added at this time.
To some samples GRGDSP (SEQ ID NO 11) or GRGDTP (SEQ ID NO 12) peptide was added at a concentration of 1 mg/ml. […]

type I collagen = conditions: Dedhar et al. 1987; Hynes 1992; cited from earlier work

Substance	effect on neurite outgrowth on CTfn3 or CTfn6 substrates [1]	effect on neurite outgrowth on polylysine-coated substrates [1]	inhibition of SL29 attachment to CT/TN, further analysis ([2]; 1 mg/ml GRGDTP peptide) [%]	inhibition of cell attachment to intact CT [2] [%]	effect on cell attachment to CTfn5-6 substrate ([2]; inhibitor added before plating)	effect on cell attachment to CTfg substrate ([2]; inhibitor added before plating)	effect on cell attachment to CTfn3 substrate ([2]; inhibitor added before plating)	effect on cell attachment to CTfn6 substrate ([2]; inhibitor added before plating)	inhibition of cell attachment to collagen I (type I collagen)
GRGDTP [GRGDTP]	inhibited neurite outgrowth	not on polylysine-coated substrates	33	70	unaffected	unaffected	completely inhibited; also recorded: selectively inhibited	not effective; also recorded: ineffective	active inhibitor; also recorded: inhibit binding to collagen I
Gly-Arg-Gly-Asp-Ser-Pro [GRGDSP]				73		unaffected	completely inhibited	only partially inhibited; also recorded: could inhibit	far less effective inhibitor; also recorded: had no effect; also recorded: generally has no effect
